Measurements taken from patent US20240415918A1, “Polypeptide and its use as a CCK receptor agonist/antagonist” (Centre for Regenerative Medicine & Health, Hong Kong …, priority 2021, published 2024).
*1 amine or outer side, *2 acyl side, *3 side chain or, on linkers, in order; H or OH if unused. Where a SMILES comes first, the peptide text is derived from it. Where no end group is shown, it is not given here. [ ]: non-standard residue; d: D form. The star is where a group is joined. X1 = O=C([C@@]1(O)C[C@@H](O)[C@H](N[*:1])C([C@@H](O)[C@@H](O)CO)O1)[*:2]; Trp(1-Me) = Cn1cc(C[C@H](N)C(=O)O)c2ccccc21; NMeW = CN[C@@H](Cc1c[nH]c2ccccc12)C(=O)O; Phe(3-Br) = N[C@@H](Cc1cccc(Br)c1)C(=O)O; Aad = N[C@@H](CCCC(=O)O)C(=O)O; Aoc(2) = CCCCCC[C@H](N)C(=O)O; Nle = CCCC[C@H](N)C(=O)O; Cbz = O=C(OCc1ccccc1)*

Assays:
[1] = biological target: T1, CCK-B receptors (CHO-CCK) (Homo sapiens, UniProt P32239); assay: Calcium flux (Fluo-8) antagonist test on CHO-CCK model cells in presence of CCK8; assay type: cell-based
T1 construct: expressed in transfected cells; host or cells: CHO (CHO-CCK model cells)
T1 sequence (P32239 1-447): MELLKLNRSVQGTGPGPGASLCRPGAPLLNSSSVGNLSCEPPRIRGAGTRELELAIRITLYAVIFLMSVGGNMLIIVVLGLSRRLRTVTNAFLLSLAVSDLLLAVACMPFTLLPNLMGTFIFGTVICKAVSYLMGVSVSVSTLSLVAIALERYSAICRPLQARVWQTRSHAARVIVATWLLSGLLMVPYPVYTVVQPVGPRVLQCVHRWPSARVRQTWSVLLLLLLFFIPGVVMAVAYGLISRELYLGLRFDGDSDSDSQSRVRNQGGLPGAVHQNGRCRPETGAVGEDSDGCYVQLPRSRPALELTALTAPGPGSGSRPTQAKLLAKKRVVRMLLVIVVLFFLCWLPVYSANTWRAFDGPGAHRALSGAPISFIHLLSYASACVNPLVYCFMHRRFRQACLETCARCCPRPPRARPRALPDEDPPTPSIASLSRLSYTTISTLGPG
Experimental: The compound was formulated to a 10 mM mother liquor with DMSO, and then diluted into a series of 9 concentrations with a 3-fold gradient to form a 1000× stock solution. […] Prepare 1×Fluo-8 analysis buffer: mix 9 mL of HHBS, 1 mL of 10× Pluronic F127 Plus and 20 μL of Fluo-8 thoroughly for later use. • 3. Add Fluo-8 dye working solution to the cell plate, 100 μL/well. First incubate in a 37° C. incubator for 30 min, and then take it out and incubate at room temperature in the dark for 30 min. • 4. In the process of incubating cells, the compounds to be detected were prepared with HHBS. • 5. […] The agonism/antagonism EC50 of the compound can be obtained by plotting the fitting curve with the agonism/antagonism percentage as Y-axis and the concentration of the compound as X-axis.

[2] = biological target: T1, CCK-B receptors (CHO-CCK); assay: Calcium flux (Fluo-8) agonist test on CHO-CCK model cells; assay type: cell-based; conditions: for EC50 / % Act-Ave @ 1 nM / % Act-Ave @ 50 nM: CHO-CCK cells; for Agonistic Activity (%) at 10 μM: compound at 10 μM, percentage of signal of 20 nM CCK8 alone; for % Act-Ave @ 1 nM: compound at 1 nM; for % Act-Ave @ 50 nM: compound at 50 nM
Outline: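 Agonist-mode Fluo-8 calcium flux read on CHO-CCK cells after dye loading 30 min at 37 °C plus 30 min at room temperature.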

[3] = compound together with 10 nM CCK8
[4] = compound alone, 100% = 20 nM CCK8
[5] = Fluo-8 calcium flux, 100% control = 20 nM CCK8

EC50 [1, 3] [nM]	EC50 [2, 4] [µM]	Agonistic Activity (%) at 10 μM [2] [%]	% Act-Ave @ 1 nM [2] [%]	% Act-Ave @ 50 nM [2] [%]	Compound	also measured
–	–	–	62.28	100.24	CCCC[C@H](NC(=O)[C@H](Cc1c[nH]c2ccccc12)N(C)C(=O)[C@@]1(O)C[C@@H](O)[C@H](NC(C)=O)C([C@@H](O)[C@@H](O)CO)O1)C(=O)N[C@@H](CCCC(=O)O)C(=O)N[C@@H](Cc1cccc(Br)c1)C(N)=O (stereo partly drawn) [HT-275, Trp)-Nle-Aa-Phe(3-Br)-NH2] (Ac-[X1][NMeW][Nle][Aad][Phe(3-Br)]-NH2)	–
–	–	–	−0.13	13.46	CCCC[C@H](NC(=O)[C@H](Cc1c[nH]c2ccccc12)N(C)C(=O)[C@@H](N)CCC(=O)O)C(=O)N[C@@H](CCCC(=O)O)C(=O)N[C@@H](Cc1cccc(Br)c1)C(N)=O [HT-277, Glu-(N-Me-Trp)-Nle-Aa-Phe(3-Br)-NH2] (H-E[NMeW][Nle][Aad][Phe(3-Br)]-NH2)	–
–	–	–	−0.19	90.99	CCCCCC[C@H](NC(=O)[C@H](Cc1cn(C)c2ccccc12)NC(=O)OCc1ccccc1)C(=O)N[C@@H](CC(=O)O)C(=O)N[C@@H](Cc1cccc(Br)c1)C(N)=O [HT-279, Cbz-(1-Me-Trp)-Oa-Asp-Phe(3-Br)-NH2] (Cbz-[Trp(1-Me)][Aoc(2)]D[Phe(3-Br)]-NH2)	–
–	–	–	−0.33	−0.16	CSCC[C@H](NC(C)=O)C(=O)N[C@@H](CC(=O)O)C(=O)N[C@@H](Cc1ccccc1)C(N)=O [HT-280, Ac-Met-Asp-Phe-NH2] (Ac-Met-Asp-Phe-NH2)	–
–	–	–	−0.09	0.03	CCCCCC[C@H](NC(C)=O)C(=O)N[C@@H](CC(=O)O)C(=O)N[C@@H](Cc1cccc(Br)c1)C(N)=O [HT-281, Ac-Oa-Asp-Phe(3-Br)-NH2] (Ac-[Aoc(2)]-Asp-[Phe(3-Br)]-NH2)	–
–	–	–	0.13	0.45	CSCC[C@H](NC(C)=O)C(=O)N[C@@H](CC(=O)O)C(=O)N[C@@H](Cc1cccc(Br)c1)C(N)=O [HT-282, Ac-Met-Asp-Phe(3-Br)-NH2] (Ac-Met-Asp-[Phe(3-Br)]-NH2)	–
–	–	–	−0.04	−0.03	CCCC[C@H](NC(C)=O)C(=O)N[C@@H](CC(=O)O)C(=O)N[C@@H](Cc1cccc(Br)c1)C(N)=O [HT-283, Ac-Nle-Asp-Phe(3-Br)-NH2] (Ac-[Nle]-Asp-[Phe(3-Br)]-NH2)	–
–	–	–	0.01	0.09	CC(=O)N[C@@H](CC(=O)O)C(=O)N[C@@H](Cc1ccccc1)C(N)=O [HT-284, Ac-Asp-Phe-NH2] (Ac-Asp-Phe-NH2)	–
–	–	–	77.83	99.10	HHHHHHSSGGDYMGWKDF-NH2 [HT-287]	–
–	–	–	−0.40	−0.52	HHHHHHSSGGWKDF-NH2 [HT-286]	–

Continued, compound first:

Compound	EC50 [1, 3] [nM]	EC50 [2, 4] [µM]	Agonistic Activity (%) at 10 μM [2] [%]	% Act-Ave @ 1 nM [2] [%]	% Act-Ave @ 50 nM [2] [%]	also measured
CSCC[C@H](NC(=O)[C@H](N)Cc1c[nH]c2ccccc12)C(=O)N[C@@H](CC(=O)O)C(=O)N[C@@H](Cc1ccccc1[N+](=O)[O-])C(N)=O [HT-24, D-Trp-Met-Asp-Phe(2-NO2)-NH2]	624	0.206	50.60	–	–	–
CSCC[C@H](NC(=O)[C@H](N)Cc1c[nH]c2ccccc12)C(=O)N[C@@H](CC(=O)O)C(=O)N[C@@H](Cc1ccccc1F)C(N)=O [HT-25, D-Trp-Met-Asp-Phe(2-F)-NH2]	603	0.225	89.41	–	–	–
CSCC[C@H](NC(=O)[C@H](N)Cc1c[nH]c2ccccc12)C(=O)N[C@@H](CC(=O)O)C(=O)N[C@@H](Cc1cccc(Cl)c1)C(N)=O [HT-26, D-Trp-Met-Asp-Phe(3-Cl)-NH2]	635	0.0784	85.75	–	–	–
CSCC[C@H](NC(=O)[C@H](N)Cc1c[nH]c2ccccc12)C(=O)N[C@@H](CC(=O)O)C(=O)N[C@@H](Cc1cccc(F)c1)C(N)=O [HT-27, D-Trp-Met-Asp-Phe(3-F)-NH2]	1340	0.155	79.08	–	–	–
CSCC[C@H](NC(=O)[C@H](N)Cc1c[nH]c2ccccc12)C(=O)N[C@@H](CC(=O)O)C(=O)N[C@@H](Cc1cccc(I)c1)C(N)=O [HT-28, D-Trp-Met-Asp-Phe(3-I)-NH2]	149	0.154	49.93	–	–	–
CSCC[C@H](NC(=O)[C@H](N)Cc1c[nH]c2ccccc12)C(=O)N[C@@H](CC(=O)O)C(=O)N[C@@H](Cc1cccc(Br)c1)C(N)=O [HT-29, D-Trp-Met-Asp-Phe(3-Br)-NH2]	106	0.0081	85.68	–	–	–
CSCC[C@H](NC(=O)[C@H](N)Cc1c[nH]c2ccccc12)C(=O)N[C@@H](CC(=O)O)C(=O)N[C@@H](Cc1ccc(C)cc1)C(N)=O [HT-30, D-Trp-Met-Asp-Phe(4 Me)-NH2]	683	0.0932	88.74	–	–	–
CSCC[C@H](NC(=O)[C@H](N)Cc1c[nH]c2ccccc12)C(=O)N[C@@H](CC(=O)O)C(=O)N[C@@H](Cc1ccc(C#N)cc1)C(N)=O [HT-32, D-Trp-Met-Asp-Phe(4-CN)-NH2]	2660	1.13	57.37	–	–	–
CSCC[C@H](NC(=O)[C@H](N)Cc1c[nH]c2ccccc12)C(=O)N[C@@H](CC(=O)O)C(=O)N[C@@H](Cc1ccc([N+](=O)[O-])cc1)C(N)=O [HT-33, D-Trp-Met-Asp-Phe(4-NO2)-NH2]	1200	0.241	71.20	–	–	–
CSCC[C@H](NC(=O)[C@H](N)Cc1c[nH]c2ccccc12)C(=O)N[C@@H](CC(=O)O)C(=O)N[C@@H](Cc1ccc(Br)cc1)C(N)=O [HT-34, D-Trp-Met-Asp-Phe(4-Br)-NH2]	2250	0.369	98.24	–	–	–
CSCC[C@H](NC(=O)[C@H](N)Cc1c[nH]c2ccccc12)C(=O)N[C@@H](CC(=O)O)C(=O)N[C@@H](Cc1ccc(Cl)cc1)C(N)=O [HT-35, D-Trp-Met-Asp-Phe(4-CII)-NH2]	755	0.18	109.16	–	–	–
CSCC[C@H](NC(=O)[C@H](Cc1c[nH]c2ccccc12)NC(C)=O)C(=O)N[C@@H](CC(=O)O)C(=O)N[C@@H](CCC(=O)O)C(N)=O [HT-197, Ac-Trp-Met-Asp-Gln-NH2]	–	–	–	–	–	EC50 ([1]; in presence of 10 nM CCK8): 1670 nM
CCCC[C@H](NC(=O)[C@H](Cc1c[nH]c2ccccc12)N(C)C(=O)[C@@]1(O)C[C@@H](O)[C@H](NC(C)=O)C([C@@H](O)[C@@H](O)CO)O1)C(=O)N[C@@H](CC(=O)O)C(=O)N[C@@H](Cc1cccc(Br)c1)C(N)=O (stereo partly drawn) [HT-274, Sia-(N-Me-Trp)-Nle Asp-Phe(3-Br)-NH2] (Ac-[X1][NMeW][Nle]D[Phe(3-Br)]-NH2)	–	–	–	0.10	72.88	–
CCCC[C@H](NC(=O)[C@H](Cc1c[nH]c2ccccc12)N(C)C(=O)[C@@]1(O)C[C@@H](O)[C@H](NC(C)=O)C([C@@H](O)[C@@H](O)CO)O1)C(=O)N[C@@H](CC(=O)O)C(=O)N[C@@H](Cc1cccc(Br)c1)C(N)=O (stereo partly drawn) [HT-278, Sia-(N-Me-Trp)-Nle-Asp-Phe(3-Br)-NH2] (Ac-[X1][NMeW][Nle]D[Phe(3-Br)]-NH2)	–	–	–	40.85	93.12	–
C[C@@H](NC(=O)[C@H](Cc1cccc(Br)c1)NC(=O)[C@H](CC(=O)O)NC(=O)[C@H](CCCCN)NC(=O)[C@H](N)Cc1c[nH]c2ccccc12)C(N)=O [HT-288, D-Trp-Lys-Asp-Phe(3-Br)-D-Ala-NH2] (H-[dW]KD[Phe(3-Br)][dA]-NH2)	–	–	–	–	–	EC50 ([2]; Fluo-8 calcium flux, bound in μM): > 10 µM
CC(C)C[C@H](NC(=O)[C@H](N)Cc1c[nH]c2ccccc12)C(=O)N[C@@H](CC(=O)O)C(=O)N[C@@H](Cc1cccc(Br)c1)C(=O)N[C@H](C)C(N)=O [HT-289, D-Trp-Val-Asp-Phe(3-Br)-D-Ala-NH2]	–	–	–	–	–	EC50 [2, 5]: 3.19 µM
CSCC[C@H](NC(=O)[C@H](N)Cc1c[nH]c2ccccc12)C(=O)N[C@@H](CC(=O)O)C(=O)N[C@@H](Cc1cccc(Br)c1)C(=O)N[C@H](C)C(N)=O [HT-290, D-Trp-Met-Asp-Phe(3-Br)-D-Ala-NH2] (H-[dW]MD[Phe(3-Br)][dA]-NH2)	–	–	–	–	–	EC50 [2, 5]: 6.68 µM
CSCC[C@@H]1NC(=O)[C@H](Cc2c[nH]c3ccccc23)NCCC(=O)CNC(=O)CNC(=O)CNC(=O)CNC(=O)[C@H](Cc2cccc(Br)c2)NC(=O)[C@H](CC(=O)O)NC1=O [HT-291, cyclo(Trp-Met-Asp-Phe(3-Br)-Gly-Gly-Gly-Gly)]	–	–	–	–	–	EC50 [2, 5]: 10.6 µM
CSCC[C@H](NC(=O)[C@H](Cc1c[nH]c2ccccc12)NC(=O)[C@@H](C)N)C(=O)N[C@@H](CC(=O)O)C(=O)N[C@@H](Cc1cccc(Br)c1)C(=O)N[C@H](C)C(N)=O [HT-292, D-Ala-Trp-Met-Asp-Phe(3-Br)-D-Ala-NH2] (H-[dA]WMD[Phe(3-Br)][dA]-NH2)	–	–	–	–	–	EC50 [2, 5]: 1.45 µM
